One assay addresses T1, IKZF1 (Homo sapiens, UniProt Q13422).
T1 construct: endogenously expressing IKZF1 with HiBiT fusion tag via CRISPR
Description: IKZF1 Degradation Assay, HiBiT Method. It is filed as cell-based. The note with it: NCIH929 cells expressing HiBiT-tagged IKZF1, 6 hours, top concentration 10 μM. In a few lines: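 NCIH929 cells expressing HiBiT-tagged IKZF1, 15000 cells/well in RPMI with 10% FBS and 0.05 mM 2-mercaptoethanol, exposed to compound 6 h at 37 °C. Remaining IKZF1 quantified by lytic HiBiT luminescence, normalised to untreated-cell and medium-only controls.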
On the technique in general: With HiBiT, luminescence reflects the tagged protein that the partner subunit can reach.

Another assay concerns the target T2, IRAK4 (Homo sapiens, UniProt Q9NWZ3).
T2 construct: 293Tcells expressing HiBiT-tagged IRAK4 were then added into 384-well plates
T2 sequence (Q9NWZ3 1-460): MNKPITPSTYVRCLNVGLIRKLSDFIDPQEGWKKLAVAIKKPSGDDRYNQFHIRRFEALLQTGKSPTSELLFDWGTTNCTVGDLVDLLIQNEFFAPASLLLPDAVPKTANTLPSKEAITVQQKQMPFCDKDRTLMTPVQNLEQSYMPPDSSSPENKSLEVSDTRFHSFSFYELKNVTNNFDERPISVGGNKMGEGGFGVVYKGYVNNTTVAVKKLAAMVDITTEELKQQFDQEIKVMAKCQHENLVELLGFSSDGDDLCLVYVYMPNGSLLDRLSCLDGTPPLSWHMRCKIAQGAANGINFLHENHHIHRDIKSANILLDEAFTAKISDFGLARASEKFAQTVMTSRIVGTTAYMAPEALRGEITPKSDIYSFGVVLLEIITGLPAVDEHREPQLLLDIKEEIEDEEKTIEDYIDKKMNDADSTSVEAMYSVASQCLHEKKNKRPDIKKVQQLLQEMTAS
Description: IRAK4 Degradation Assay, HiBiT Method. The assay is classed as cell-based. The following applies: 293T cells expressing HiBiT-tagged IRAK4, 6 hours. Put shortly: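 293T cells with HiBiT knocked in at the C-terminus of endogenous IRAK4, 10,000 per well, treated 6 h at 37 °C with an 11-point half-log series ([…]), in duplicate. Remaining IRAK4 read by Nano-Glo HiBiT lytic luminescence against DMSO-only and media-only controls.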

Some results are limits rather than exact numbers.

T1 sequence (Q96SW2 whole entry partner, the tested form may be a part): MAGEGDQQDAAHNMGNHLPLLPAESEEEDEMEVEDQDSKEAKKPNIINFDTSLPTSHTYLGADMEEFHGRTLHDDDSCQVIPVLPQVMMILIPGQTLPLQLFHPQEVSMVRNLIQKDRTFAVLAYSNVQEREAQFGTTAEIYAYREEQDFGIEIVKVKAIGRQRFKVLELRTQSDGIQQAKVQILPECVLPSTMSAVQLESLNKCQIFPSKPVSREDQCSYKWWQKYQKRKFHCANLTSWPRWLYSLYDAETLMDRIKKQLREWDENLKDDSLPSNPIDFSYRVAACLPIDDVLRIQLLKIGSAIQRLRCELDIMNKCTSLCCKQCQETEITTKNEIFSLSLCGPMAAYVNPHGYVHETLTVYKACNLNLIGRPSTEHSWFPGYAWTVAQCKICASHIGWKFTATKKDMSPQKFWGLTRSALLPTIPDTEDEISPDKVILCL
T1 sequence (Q16531 whole entry partner, the tested form may be a part): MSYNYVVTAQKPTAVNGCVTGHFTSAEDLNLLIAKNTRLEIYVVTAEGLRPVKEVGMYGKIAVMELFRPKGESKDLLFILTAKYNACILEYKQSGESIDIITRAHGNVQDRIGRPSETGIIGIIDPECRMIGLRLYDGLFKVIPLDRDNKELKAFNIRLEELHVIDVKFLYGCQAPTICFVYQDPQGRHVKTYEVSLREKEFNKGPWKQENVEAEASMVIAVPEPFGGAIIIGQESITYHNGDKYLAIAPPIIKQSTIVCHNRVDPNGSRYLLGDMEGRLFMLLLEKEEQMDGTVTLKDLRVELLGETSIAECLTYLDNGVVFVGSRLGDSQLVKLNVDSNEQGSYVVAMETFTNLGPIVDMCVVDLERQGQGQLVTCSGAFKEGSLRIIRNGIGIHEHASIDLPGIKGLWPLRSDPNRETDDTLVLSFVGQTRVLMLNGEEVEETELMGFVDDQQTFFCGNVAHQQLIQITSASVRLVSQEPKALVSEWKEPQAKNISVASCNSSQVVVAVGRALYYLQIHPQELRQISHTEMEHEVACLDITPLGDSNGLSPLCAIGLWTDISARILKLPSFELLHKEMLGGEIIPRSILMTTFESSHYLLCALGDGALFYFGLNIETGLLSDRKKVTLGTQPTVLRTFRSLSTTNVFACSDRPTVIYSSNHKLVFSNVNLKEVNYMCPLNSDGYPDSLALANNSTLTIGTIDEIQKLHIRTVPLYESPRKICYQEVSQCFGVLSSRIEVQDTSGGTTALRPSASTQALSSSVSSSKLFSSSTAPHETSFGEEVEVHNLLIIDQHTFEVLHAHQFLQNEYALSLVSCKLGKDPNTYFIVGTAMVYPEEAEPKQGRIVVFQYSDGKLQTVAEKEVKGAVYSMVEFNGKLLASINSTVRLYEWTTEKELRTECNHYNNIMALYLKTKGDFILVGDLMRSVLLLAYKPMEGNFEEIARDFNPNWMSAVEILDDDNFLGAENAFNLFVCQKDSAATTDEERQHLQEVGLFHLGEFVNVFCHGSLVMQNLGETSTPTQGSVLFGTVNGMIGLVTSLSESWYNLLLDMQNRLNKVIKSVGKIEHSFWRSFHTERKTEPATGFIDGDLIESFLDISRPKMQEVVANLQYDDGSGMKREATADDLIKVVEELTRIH
T1 sequence (Q13422 whole entry, the tested form may be a part): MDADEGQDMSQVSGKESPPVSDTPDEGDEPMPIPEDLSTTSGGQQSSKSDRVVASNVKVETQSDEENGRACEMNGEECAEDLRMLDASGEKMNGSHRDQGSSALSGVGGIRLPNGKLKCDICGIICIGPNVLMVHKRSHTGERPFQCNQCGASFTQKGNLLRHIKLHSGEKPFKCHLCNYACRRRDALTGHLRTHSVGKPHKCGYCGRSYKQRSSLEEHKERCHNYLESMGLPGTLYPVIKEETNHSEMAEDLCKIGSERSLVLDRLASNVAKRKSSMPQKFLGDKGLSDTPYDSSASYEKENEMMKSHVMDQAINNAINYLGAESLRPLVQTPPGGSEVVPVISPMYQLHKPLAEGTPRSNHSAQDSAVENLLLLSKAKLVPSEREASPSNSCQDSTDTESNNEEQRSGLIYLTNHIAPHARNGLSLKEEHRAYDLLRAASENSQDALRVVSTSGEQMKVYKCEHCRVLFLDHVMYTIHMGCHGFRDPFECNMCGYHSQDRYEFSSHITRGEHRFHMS

With `Cc1cnc2c(NC(=O)c3cc4cn([C@H]5CC[C@H](CN6CCC(c7ccc(C8CCC(=O)NC8=O)cc7F)CC6)CC5)nc4cc3OC(C)C)cnn2c1` (some centres unmarked) [Example 114, 2-((1r,4r)-4-((4-(4-(2,6-dioxopiperidin-3-yl)-2-fluorophenyl)piperidin-1-yl)methyl)cyclohexyl)-6-isopropoxy-N-(6-methylpyrazolo[1,5-a]pyrimidin-3-yl)-2H-indazole-5-carboxamide], the values for the DC50 at IKZF1 and at IRAK4 were more than 10000 nM and 10 to 100 nM, respectively.

For `CC(C)Oc1cc2nc(C3CCN(C(=O)CC4(O)CCN(c5ccc(NC6CCC(=O)NC6=O)cc5Cl)CC4)CC3)cn2cc1C(=O)Nc1cccc(C(F)F)n1` (centres unmarked) [Example 73, 2-[1-[2-[1-[2-chloro-4-[(2,6-dioxo-3-piperidyl)amino]phenyl]-4-hydroxy-4-piperidyl]acetyl]-4-piperidyl]-N-[6-(difluoromethyl)-2-pyridyl]-7-isopropoxy-imidazo[1,2-a]pyridine-6-carboxamide], the DC50 (usually the concentration giving 50% degradation) at IKZF1 was more than 10000 nM; on IRAK4 it was less than 10 nM.

Consider `CC(C)Oc1cc2nn([C@H]3CC[C@H](CN4CCC(c5ccc(O[C@H]6CCC(=O)NC6=O)cc5)CC4)CC3)cc2cc1C(=O)Nc1cccn(C2CC2)c1=O` (single isomer, unassigned) [Example 142], for which the DC50 is more than 10000 nM at IKZF1 and less than 10 nM at IRAK4.

As to `CC(C)Oc1cc2nc(C3CCN(CC(=O)N4CCC(c5ccc(NC6CCC(=O)NC6=O)cc5)CC4)CC3)cn2cc1C(=O)Nc1cnn2cccnc12` (centres unmarked) [Example 104, 2-[1-[2-[4-[4-[(2,6-dioxo-3-piperidyl)amino]phenyl]-1-piperidyl]-2-oxo-ethyl]-4-piperidyl]-7-isopropoxy-N-pyrazolo[1,5-a]pyrimidin-3-yl-imidazo[1,2-a]pyridine-6-carboxamide], the DC50 is more than 10000 nM at IKZF1 and less than 10 nM at IRAK4.

For `CC(C)Oc1cc2nc(C3CCN(C(=O)CN4CCC(c5ccc(C6CCC(=O)NC6=O)cc5)CC4)CC3)cn2cc1C(=O)Nc1cccc(C(F)F)n1` (centres unmarked) [Example 68, N-[6-(difluoromethyl)-2-pyridyl]-2-[1-[2-[4-[4-(2,6-dioxo-3-piperidyl)phenyl]-1-piperidyl]acetyl]-4-piperidyl]-7-isopropoxy-imidazo[1,2-a]pyridine-6-carboxamide], the DC50 is more than 10000 nM on IKZF1 and 10 to 100 nM on IRAK4.

For `CC(C)Oc1cc2nc([C@H]3CC[C@H](CN4CCC(c5ccc(OC6CCC(=O)NC6=O)cc5)CC4)CC3)cn2cc1C(=O)Nc1cccc(C(F)F)n1` (some centres unmarked) [Example 31, N-[6-(difluoromethyl)-2-pyridyl]-2-[4-[[4-[4-[(2,6-dioxo-3-piperidyl)oxy]phenyl]-1-piperidyl]methyl]cyclohexyl]-7-isopropoxy-imidazo[1,2-a]pyridine-6-carboxamide], the DC50 is more than 10000 nM on IKZF1 and 10 to 100 nM on IRAK4.

Regarding `CC(C)Oc1cc2nn(C3CCN(C(=O)CC4(O)CCN(c5cnc6c(c5)n(C)c(=O)n6C5CCC(=O)NC5=O)CC4)CC3)cc2cc1C(=O)Nc1cccn([C@H]2C[C@H]2F)c1=O` (stereo partly drawn) [Example 153, 2-(1-(2-(1-(3-(2,6-dioxopiperidin-3-yl)-1-methyl-2-oxo-2,3-dihydro-1H-imidazo[4,5-b]pyridin-6-yl)-4-hydroxypiperidin-4-yl)acetyl)piperidin-4-yl)-N-(1-((1S,2R)-2-fluorocyclopropyl)-2-oxo-1,2-dihydropyridin-3-yl)-6-isopropoxy-2H-indazole-5-carboxamide], the DC50 at IKZF1 is more than 10000 nM; on IRAK4 it was 10 to 100 nM.

As to `CC(C)Oc1cc2nc([C@H]3CC[C@H](CN4CCC(c5ccc(C6CCC(=O)NC6=O)cc5F)CC4)CC3)cn2cc1C(=O)Nc1cccc(C(F)F)n1` (some centres unmarked) [Example 23, N-[6-(difluoromethyl)-2-pyridyl]-2-[4-[[4-[4-(2,6-dioxo-3-piperidyl)-2-fluoro-phenyl]-1-piperidyl]methyl]cyclohexyl]-7-isopropoxy-imidazo[1,2-a]pyridine-6-carboxamide], the DC50 on IKZF1 is more than 10000 nM; on IRAK4 it was 10 to 100 nM.

As to `CC(C)Oc1cc2nn(C3CCN(C(=O)CC4CCN(c5ccc(C6CCC(=O)NC6=O)cn5)CC4)CC3)cc2cc1C(=O)Nc1cnn2cccnc12` (centres unmarked) [Example 147, 2-(1-(2-(1-(5-(2,6-dioxopiperidin-3-yl)pyridin-2-yl)piperidin-4-yl)acetyl)piperidin-4-yl)-6-isopropoxy-N-(pyrazolo[1,5-a]pyrimidin-3-yl)-2H-indazole-5-carboxamide], the DC50 on IKZF1 is more than 10000 nM; on IRAK4, less than 10 nM.

For `CC(C)Oc1cc2nc(C3CCN(C(=O)CN4CCC(c5ccc(C6CCC(=O)NC6=O)cc5)CC4)CC3)cn2cc1C(=O)Nc1cnn2cccnc12` (centres unmarked) [Example 87, 2-[1-[2-[4-[4-(2,6-dioxo-3-piperidyl)phenyl]-1-piperidyl]acetyl]-4-piperidyl]-7-isopropoxy-N-pyrazolo[1,5-a]pyrimidin-3-yl-imidazo[1,2-a]pyridine-6-carboxamide], the DC50 is more than 10000 nM at IKZF1 and less than 10 nM on IRAK4.

For the molecule `CC(C)Oc1cc2nc(C3CCN(C(=O)CC4CCN(c5ncc(NC6CCC(=O)NC6=O)cc5F)CC4)CC3)cn2cc1C(=O)Nc1cccc(C(F)F)n1` (centres unmarked) [Example 81, N-[6-(difluoromethyl)-2-pyridyl]-2-[1-[2-[1-[5-[(2,6-dioxo-3-piperidyl)amino]-3-fluoro-2-pyridyl]-4-piperidyl]acetyl]-4-piperidyl]-7-isopropoxy-imidazo[1,2-a]pyridine-6-carboxamide], the DC50 is more than 10000 nM on IKZF1 and 10 to 100 nM on IRAK4.

With `Cc1cnc2c(NC(=O)c3cn4cc([C@H]5CC[C@H](CN6CCC(c7ccc(OC8CCC(=O)NC8=O)cc7)CC6)CC5)nc4cc3OC(C)C)cnn2c1` (some centres unmarked) [Example 52, 2-[4-[[4-[4-[(2,6-dioxo-3-piperidyl)oxy]phenyl]-1-piperidyl]methyl]cyclohexyl]-7-isopropoxy-N-(6-methylpyrazolo[1,5-a]pyrimidin-3-yl)imidazo[1,2-a]pyridine-6-carboxamide], the results for the DC50 on IKZF1 and on IRAK4 were more than 10000 nM and less than 10 nM, respectively.

Consider `CC(C)Oc1cc2nn(C3CCN(C(=O)CN4CCC(c5ccc(NC6CCC(=O)NC6=O)cc5)CC4)CC3)cc2cc1C(=O)Nc1cnn2cccnc12` (centres unmarked) [Example 55, 2-(1-(2-(4-(4-((2,6-dioxopiperidin-3-yl)amino)phenyl)piperidin-1-yl)acetyl)piperidin-4-yl)-6-isopropoxy-N-(pyrazolo[1,5-a]pyrimidin-3-yl)-2H-indazole-5-carboxamide], for which the results for the DC50 at IKZF1 and on IRAK4 were more than 10000 nM and less than 10 nM, respectively.

The values above are taken from patent US20240343733A1, “COMPOUNDS FOR TARGETING DEGRADATION OF IRAK4 PROTEINS” (BIOGEN MA INC., priority 2021, published 2024).
